Assay results published in US6355799B1, “Substituted benzene compounds, process for their preparation, and herbicidal and defoliant compositions containing them” (ISK Americas Incorporated, priority 1997, dated 2002).

Key:
Format in all cases: in vivo
[1] = system: redroot pigweed (Amaranthus retroflexus, AMARE); test: Pre-emerge test, greenhouse herbicide activity screening; details: pre-emerge, rated 14 days after application, 0 = no damage, 100 = complete death
How it was run: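 Compounds in acetone were track-sprayed at 187 l/ha, 15–1000 g ai/ha, onto sandy loam pots. Pre-emerge seeds were sown one day before spraying, with surface watering afterwards. Post-emerge plants were at the 2–3 leaf stage and sprayed with 0.25% v/v non-ionic surfactant. Injury was rated 0–100 at 14 days.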

[2] = system: barnyardgrass (Echinochloa crus-galli, ECHCG); test: as above; details: pre-emerge, rated 14 days after application, 0 = no damage, 100 = complete death
How it was run: (§1)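 Compounds in acetone were track-sprayed at 15–1000 g ai/ha: pre-emergence onto soil sown the previous day, then top-watered to incorporate and later bottom-watered; post-emergence onto 2–3 leaf plants with 0.25% v/v surfactant, bottom-watered only. Ratings on a 0–100 phytotoxicity scale were taken at day 14.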

[3] = system: green foxtail (Setaria viridis, SETVI); test: as above; details: pre-emerge, rated 14 days after application, 0 = no damage, 100 = complete death
How it was run: as §1

[4] = system: ivyleaf morningglory (Ipomoea hederacea, IPOHE); test: as above; details: pre-emerge, rated 14 days after application, 0 = no damage, 100 = complete death
How it was run: as §1

[5] = system: johnsongrass (Sorghum halepense, SORHA); test: as above; details: pre-emerge, rated 14 days after application, 0 = no damage, 100 = complete death
How it was run: as §1

[6] = system: lambsquarters (Chenopodium album, CHEAL); test: as above; details: pre-emerge, rated 14 days after application, 0 = no damage, 100 = complete death
How it was run: as §1

[7] = system: large crabgrass (Digitaria sanguinalis, DIGSA); test: as above; details: pre-emerge, rated 14 days after application, 0 = no damage, 100 = complete death
How it was run: as §1

[8] = system: sicklepod (Cassia obtusifolia, CASOB); test: as above; details: pre-emerge, rated 14 days after application, 0 = no damage, 100 = complete death
How it was run: as §1

[9] = system: velvetleaf (Abutilon theophrasti, ABUTH); test: as above; details: pre-emerge, rated 14 days after application, 0 = no damage, 100 = complete death
How it was run: as §1

[10] = system: field corn (Zea mays L., var. Dekalb 535, CORN); test: Pre-emerge test, crop safety; details: pre-emerge, rated 14 days after application, 0 = no damage, 100 = complete death
How it was run: (§2)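 Applied at 15–1000 g ai/ha from acetone in 187 l/ha spray volume. Post-emergence applications included 0.25% v/v non-ionic surfactant and reached plants sown 8–21 days before. Pre-emergence applications were incorporated by surface watering. Efficacy or crop damage was rated on a 0–100 scale after 14 days.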

[11] = system: upland rice (Oryza sp., var. Tebonnet, RICE); test: Pre-emerge test, crop safety; details: pre-emerge, rated 14 days after application, 0 = no damage, 100 = complete death
How it was run: as §2

[12] = system: barnyardgrass (Echinochloa crus-galli, ECHCG); test: Post-emerge test, greenhouse herbicide activity screening; details: phytotoxicity rating 0-100 (0 no damage, 100 complete death), 14 days after application
How it was run: as §2

[13] = system: green foxtail (Setaria viridis, SETVI); test: as above; details: phytotoxicity rating 0-100 (0 no damage, 100 complete death), 14 days after application
How it was run: as §2

[14] = system: ivyleaf morningglory (Ipomoea hederacea, IPOHE); test: as above; details: phytotoxicity rating 0-100 (0 no damage, 100 complete death), 14 days after application
How it was run: as §2

[15] = system: johnsongrass (Sorghum halepense, SORHA); test: as above; details: phytotoxicity rating 0-100 (0 no damage, 100 complete death), 14 days after application
How it was run: as §2

[16] = system: lambsquarters (Chenopodium album, CHEAL); test: as above; details: phytotoxicity rating 0-100 (0 no damage, 100 complete death), 14 days after application
How it was run: as §2

[17] = system: large crabgrass (Digitaria sanguinalis, DIGSA); test: as above; details: phytotoxicity rating 0-100 (0 no damage, 100 complete death), 14 days after application
How it was run: as §2

[18] = system: redroot pigweed (Amaranthus retroflexus, AMARE); test: as above; details: phytotoxicity rating 0-100 (0 no damage, 100 complete death), 14 days after application
How it was run: as §2

[19] = system: sicklepod (Cassia obtusifolia, CASOB); test: as above; details: phytotoxicity rating 0-100 (0 no damage, 100 complete death), 14 days after application
How it was run: as §2

[20] = system: velvetleaf (Abutilon theophrasti, ABUTH); test: as above; details: phytotoxicity rating 0-100 (0 no damage, 100 complete death), 14 days after application
How it was run: as §2

[21] = system: field corn (Zea mays L., var. Dekalb 535, CORN); test: Post-emerge test, crop safety; details: phytotoxicity rating 0-100 (0 no damage, 100 complete death), 14 days after application
How it was run: (§3)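 Rating: 0–100 visual injury, 14 DAA. Application: acetone, 187 l/ha, 15–1000 g ai/ha, flat-fan track sprayer with nozzle 40–45 cm above soil or canopy. Post-emerge runs used 0.25% v/v surfactant on 2–3 leaf plants.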

[22] = system: upland rice (Oryza sp., var. Tebonnet, RICE); test: Post-emerge test, crop safety; details: phytotoxicity rating 0-100 (0 no damage, 100 complete death), 14 days after application
How it was run: as §3

COc1c(Cl)cc(F)c(-n2c(=O)cc(C(F)(F)F)n(C)c2=O)c1N(C(=O)C=C(C)C)C(=O)C=C(C)C [2-8]
80: Pre-emerge Herbicidal Activity DIGSA (phytotoxicity rating, scale 0-100) ([7]; 63 g ai/ha) | Pre-emerge Herbicidal Activity DIGSA (phytotoxicity rating, scale 0-100) ([7]; 250 g ai/ha)
60: Pre-emerge Herbicidal Activity CHEAL (phytotoxicity rating, scale 0-100) ([6]; 63 g ai/ha) | Post-emerge Herbicidal Activity CHEAL ([16]; 250 g ai/ha)
20: Post-emerge Herbicidal Activity AMARE ([18]; 250 g ai/ha)
90: Pre-emerge Herbicidal Activity SETVI (phytotoxicity rating, scale 0-100) ([3]; 63 g ai/ha) | Pre-emerge Herbicidal Activity SETVI (phytotoxicity rating, scale 0-100) ([3]; 250 g ai/ha)
100: Pre-emerge Herbicidal Activity AMARE (phytotoxicity rating, scale 0-100) ([1]; 250 g ai/ha) | Pre-emerge Herbicidal Activity IPOHE (phytotoxicity rating, scale 0-100) ([4]; 250 g ai/ha) | Pre-emerge Herbicidal Activity CHEAL (phytotoxicity rating, scale 0-100) ([6]; 250 g ai/ha) | Pre-emerge Herbicidal Activity ABUTH (phytotoxicity rating, scale 0-100) ([9]; 250 g ai/ha)
40: Pre-emerge Herbicidal Activity AMARE (phytotoxicity rating, scale 0-100) ([1]; 63 g ai/ha) | Pre-emerge Herbicidal Activity SORHA (phytotoxicity rating, scale 0-100) ([5]; 63 g ai/ha) | Pre-emerge Herbicidal Activity SORHA (phytotoxicity rating, scale 0-100) ([5]; 250 g ai/ha) | Post-emerge Herbicidal Activity ABUTH ([20]; 250 g ai/ha)
50: Pre-emerge crop damage RICE (phytotoxicity rating, scale 0-100) ([11]; 63 g ai/ha) | Pre-emerge crop damage RICE (phytotoxicity rating, scale 0-100) ([11]; 250 g ai/ha) | Post-emerge Herbicidal Activity IPOHE ([14]; 250 g ai/ha)
15: Pre-emerge crop damage CORN (phytotoxicity rating, scale 0-100) ([10]; 63 g ai/ha) | Pre-emerge crop damage CORN (phytotoxicity rating, scale 0-100) ([10]; 250 g ai/ha)
0: Pre-emerge Herbicidal Activity ECHCG (phytotoxicity rating, scale 0-100) ([2]; 63 g ai/ha) | Pre-emerge Herbicidal Activity ECHCG (phytotoxicity rating, scale 0-100) ([2]; 250 g ai/ha) | Pre-emerge Herbicidal Activity IPOHE (phytotoxicity rating, scale 0-100) ([4]; 63 g ai/ha) | Pre-emerge Herbicidal Activity CASOB (phytotoxicity rating, scale 0-100) ([8]; 63 g ai/ha) | Pre-emerge Herbicidal Activity CASOB (phytotoxicity rating, scale 0-100) ([8]; 250 g ai/ha) | Pre-emerge Herbicidal Activity ABUTH (phytotoxicity rating, scale 0-100) ([9]; 63 g ai/ha) | Post-emerge Herbicidal Activity ECHCG ([12]; 63 g ai/ha) | Post-emerge Herbicidal Activity ECHCG ([12]; 250 g ai/ha) | Post-emerge Herbicidal Activity SETVI ([13]; 63 g ai/ha) | Post-emerge Herbicidal Activity SETVI ([13]; 250 g ai/ha) | Post-emerge Herbicidal Activity IPOHE ([14]; 63 g ai/ha) | Post-emerge Herbicidal Activity SORHA ([15]; 63 g ai/ha) | Post-emerge Herbicidal Activity SORHA ([15]; 250 g ai/ha) | Post-emerge Herbicidal Activity CHEAL ([16]; 63 g ai/ha) | Post-emerge Herbicidal Activity DIGSA ([17]; 63 g ai/ha) | Post-emerge Herbicidal Activity DIGSA ([17]; 250 g ai/ha) | Post-emerge Herbicidal Activity AMARE ([18]; 63 g ai/ha) | Post-emerge Herbicidal Activity CASOB ([19]; 63 g ai/ha) | Post-emerge Herbicidal Activity CASOB ([19]; 250 g ai/ha) | Post-emerge Herbicidal Activity ABUTH ([20]; 63 g ai/ha) | Post-emerge Herbicidal Activity CORN (crop damage) ([21]; 63 g ai/ha) | Post-emerge Herbicidal Activity CORN (crop damage) ([21]; 250 g ai/ha) | Post-emerge Herbicidal Activity RICE (crop damage) ([22]; 63 g ai/ha) | Post-emerge Herbicidal Activity RICE (crop damage) ([22]; 250 g ai/ha)
